{
  "source": "patent US20050267051A1",
  "about": "“Antineoplastic and anti-HIV conjugates of steroid acid and nucleosides” (priority 2003, published 2005)",
  "key": {"[1]": {"system": "H9 cells", "test": "Growth inhibition (anti-growth) assay on H9 cells, trypan blue exclusion count", "format": "cell-based, human", "settings": "for IC50: Homo sapiens, H9", "source_text": "Anti-growth activity on H-9 cells is summarized by IC50 data (drug concentration measured by […]g/ml needed to inhibit 50% of the cell growth), derived from dose-response curves.\n(§1) Cell growth inhibitory activity against human lymphoblasts (H9 cells) for compounds (4), (5) and (6) is depicted in FIG. 1. […] Conjugate (4) was further tested against ddC resistant H9 cells (H9/ddC cells that have reduced thymidine and deoxycytidine kinase activities); HL60, HL60/araC (human promyclocytic leukemic cell lines, parental and araC resistant), H29, H29/FU (human colon adenocarcinomas, parental and FU resistant), MCF7 (human breast carcinoma) and BL5 (Burkitt lymphoma cell line). At 10 μg/ml, it produced 85-100% growth inhibition in all of these human tumor cell lines.\n(§2) Growth inhibition assays were performed in triplicate by seeding 5×10^4 Cells/ml in 24-well plates (Costar). Test compounds were added, and the trypan blue-excluding cells were counted after 72 hrs of incubation at 37° C. IC50 values were calculated from growth inhibition curves as described in Agarwal, R. P., and Mian, A. Biochem. Pharmacol. 1991, 42, 905 and Agarwal, Ram P., Han, Tieran, Fernandez, Manilyn. Biochemical and Biophysical Research com in un ica lions. 1999, 262, 657."}, "[2]": {"test": "Cytotoxicity in uninfected CEM-SS cells (toxicity control of anti-HIV assay)", "format": "cell-based", "settings": "human, uninfected CEM-SS cells (T4 lymphocytes); CEM-SS cell line, uninfected; average of two repeat experiments; read-out: IC50 (50% inhibitory concentration for cell growth), cytotoxicity", "source_text": "(§3) The ester conjugates were subjected to standard in vitro anti-HIV bioassays [see: with T4 lymphocytes (CEM-SS cell line) according to the standard assays described, for example in Bourinbaiar AS, Lee-Huang S. Contraception 1995; 51:319-22 and http://www.iaen.org/files.cgi/7014_Bourinbaiar.pdf. Drug efficacy (EC50) was obtained by adding HIV and AZT conjugate to the cell to measure protection of the drug against HIV-induced celldeath. The cytotoxicity (IC50) data was obtained from adding only the conjugate to the cell to measure cell death caused by the agent. The therapeutic index (TI) is the ratio IC50/EC50. […] These two active agents appear to have less cytotoxicity and weaker anti-HIV potency than AZT. […] This intriguing profile of conjugate (4) prompted further evaluations of its growth inhibition in comparison to (5) and (6).\n(§4) The anti-HIV assay was carried out with T4 lymphocytes (CEM-SS cell line) through the following standard procedure. Agent is dissolved in dimethyl sulfoxide and diluted 1:100 in cell culture medium before preparing serial half-log 10 dilutions. T4 lymphocytes are added and after a brief interval HIV-1 is added, resulting in a 1:200 final dilution of the compound. Uninfected cells with the compound serve as a toxicity control, and infected and uninfected cells without the compound serve basic controls. Cultures are incubated at 37° C. in a 5% carbon dioxide atmosphere for 6 days. The tetrazolium salt, XTT, is added to all wells, and the cultures are incubated to allow formazan color development. Individual wells are analyzed spectrophotometrically to quantitate formazan production, and in addition are viewed microscopically for detection of viable cells and confirmation of protective activity.\n(§5) Drug-treated virus-infected cells are compared with drug-treated non-infected cells and with other appropriate controls (untreated infected and untreated non-infected cells, drug-containing wells without cells, etc.) on the same plate. Data are reviewed in comparison with other tests done at the same time and a determination concerning activity is made (Table 1)."}, "[3]": {"system": "HIV-1", "test": "Anti-HIV assay with T4 lymphocytes (CEM-SS cell line), XTT, protection against HIV cytopathic effects", "format": "cell-based", "settings": "for EC50: read-out: EC50 (50% effective concentration against HIV cytopathic effects); for Anti-HIV activity (in words): in vitro anti-HIV bioassays", "source_text": "as §3, §4, §5"}, "[4]": {"system": "H9/ddC cells", "test": "Growth inhibition assay, ddC resistant H9 cells", "format": "cell-based, human", "settings": "10 μg/ml", "source_text": "as §1, §2"}, "[5]": {"system": "H29/FU", "test": "Growth inhibition assay, H29/FU", "format": "cell-based, human", "settings": "10 μg/ml, FU resistant", "source_text": "as §1, §2"}, "[6]": {"system": "HL60/araC", "test": "Growth inhibition assay, HL60/araC", "format": "cell-based, human", "settings": "10 μg/ml, araC resistant", "source_text": "as §1, §2"}, "[7]": {"system": "T4 lymphocytes (CEM-SS cell line)", "test": "Cytotoxicity in uninfected CEM-SS cells (toxicity control of anti-HIV assay)", "format": "cell-based", "source_text": "as §3, §4, §5"}, "[8]": {"system": "H9 cells", "test": "Apoptosis assay, Annexin V-FITC and propidium iodide staining, flow cytometry", "format": "cell-based, human", "settings": "10 μg/ml, 48 hrs; FIG. 4", "protocol": "In the experiments, fractions of cells in various stages of apoptotic death were assessed according to standard assays [see, e.g., http://www.blackwell-synergy.com/links/doi/10.1046/j.1365-2184.2003.00283.x/abs/; http://64.177.90.157/pfpc/Fluoride_Machalinski—2003.pdf and http://jpet.aspetjournals.org/cgi/content/full/310/1/126 by simultaneous Annexin V and propidium iodide staining using flow cytometry.\nApoptosis experiments were carried out by treating H9 Cells […] with compound 4 (10 μg/ml), AZT (10 μg/ml) or cholenic acid (10 μg/ml) for 48 hrs. Cells were collected by centrifugation, washed with growth medium, and stained with Annexin V-FITC and propidium iodide (apoptosis dilution kit; Sigma), according to the manufacturer's protocol, and the fluorescence was analyzed via flow cytometry."}, "[9]": {"system": "HL60", "test": "Growth inhibition assay, HL60", "format": "cell-based, human", "settings": "10 μg/ml; HL60 promyelocytic leukemic, parental", "source_text": "as §1, §2"}, "[10]": {"system": "MCF7", "test": "Growth inhibition assay, MCF7", "format": "cell-based, human", "settings": "10 μg/ml; MCF7 breast carcinoma", "source_text": "as §1, §2"}, "[11]": {"settings": "H-9 cells, derived from dose-response curves, read-out: IC50 (drug concentration needed to inhibit 50% of the cell growth), anti-growth activity on H-9 cells"}, "[12]": {"settings": "FIG. 1, 72 hrs incubation, read-out: IC50, cell growth inhibitory activity against human lymphoblasts (H9 cells)"}},
  "note": "Read-outs that look alike come from different tables or passages of the source.",
  "data": [
    {"molecule": "Cc1cn(C2C[C@H](N=[N+]=[N-])C(COC(=O)CCC(C)C3CCC4C5C(=O)CC6CC(=O)CCC6(C)C5CC(=O)C34C)O2)c(=O)[nH]c1=O", "note": "(stereo partly drawn) [B, 5β-Cholanic acid-3,7,12-trione, 5′-(3′-azido-3′-deoxythymidinyl) ester]", "values": [
      {"measurement": "IC50", "setting": "[1]; [11]", "result": 30, "unit": "µg/mL"}
    ]},
    {"molecule": "Cc1cn(C2C[C@H](N=[N+]=[N-])C(COC(=O)[C@@H]3OC(C)(C)O[C@@]34CCC3C5CCC6=CC(=O)C=CC6(C)C5C(O)CC34C)O2)c(=O)[nH]c1=O", "note": "(stereo partly drawn) [compound 6, 3′-Azido-3′-deoxythymidine-5′-[11β-hydroxy-17,20α-isopropylidenedioxy-3-oxo-1,4-pregnadiene-21-oate]]", "values": [
      {"measurement": "IC50 at 6 days", "setting": "[2]", "result": 12, "unit": "µM"},
      {"measurement": "EC50", "setting": "[3]; Human immunodeficiency virus 1, CEM-SS cell line, average of two repeat experiments", "result": 65, "unit": "nM"},
      {"measurement": "Anti-HIV activity (in words)", "setting": "[3]", "result": "active"},
      {"measurement": "IC50", "setting": "[1]; [12]", "result": "~10", "unit": "µg/mL"}
    ]},
    {"molecule": "CC(=O)O[C@H]1CCC2(C)C(=CCC3C2CCC2(C)C(C(C)C(=O)OCC4C=CC(n5cc(C)c(=O)[nH]c5=O)O4)CCC32)C1", "note": "(stereo partly drawn) [D, 3β-Acetyloxy-23,24-bisnor-5-cholenic acid, 5′-(3′-deoxy-2′,3′-didehydrothymidinyl) ester]", "values": [
      {"measurement": "IC50", "setting": "[1]; [11]", "result": 4, "unit": "µg/mL"}
    ]},
    {"molecule": "CC(=O)O[C@H]1CCC2(C)C(=CCC3C2CCC2(C)C(C(C)C(=O)OCC4CCC(n5cc(C)c(=O)[nH]c5=O)O4)CCC32)C1", "note": "(stereo partly drawn) [E, 3β-Acetyloxy-23,24-bisnor-5-cholenic acid, 5′-(3′-deoxythymidinyl) ester]", "values": [
      {"measurement": "IC50", "setting": "[1]; [11]", "result": 3, "unit": "µg/mL"}
    ]},
    {"molecule": "COC(OC)C(=O)[C@H]1[C@H](C(=O)OC[C@H]2O[C@@H](n3cc(C)c(=O)[nH]c3=O)C[C@@H]2N=[N+]=[N-])C[C@H]2[C@@H]3CCC4=CC(=O)C=C[C@]4(C)[C@H]3[C@@H](O)C[C@@]21C", "note": "[compound 5, 3′-Azido-3′-deoxythymidine-5′-[21,21-dimethoxy-3,20-dioxo-11β-hydroxy-1,4-pregnadiene-16α-carboxylate]]", "values": [
      {"measurement": "EC50", "setting": "[3]; Human immunodeficiency virus 1, CEM-SS", "result": 35, "unit": "nM"},
      {"measurement": "Anti-HIV activity (in words)", "setting": "[3]", "result": "active"},
      {"measurement": "IC50", "setting": "[1]; [12]", "result": "~12", "unit": "µg/mL"}
    ]},
    {"molecule": "Cc1cn(C2C[C@H](N=[N+]=[N-])C(COC(=O)CCC(C)C3CCC4C5CCC6CCCCC6(C)C5CCC34C)O2)c(=O)[nH]c1=O", "note": "(stereo partly shown) [A, 5-Cholanic acid, 5′-(3′-azido-3′-deoxythymidinyl) ester]", "values": [
      {"measurement": "IC50", "setting": "[1]; [11]", "result": 30, "unit": "µg/mL"}
    ]},
    {"molecule": "CC(=O)O[C@@H]1CCC2(C)C(CCC3C2CCC2(C)C(C(C)CCC(=O)OCC4OC(n5cc(C)c(=O)[nH]c5=O)C[C@@H]4N=[N+]=[N-])CCC32)C1", "note": "(stereo partly drawn) [C, 3α-Acetyloxy-5[…]-Cholanic acid, 5′-(3′-azido-3′-deoxythymidinyl) ester]", "values": [
      {"measurement": "IC50", "setting": "[1]; [11]", "result": 4, "unit": "µg/mL"}
    ]},
    {"molecule": "3′-Azido-3′-deoxythymidine-5′-[3β-acetyloxy-22,23-bisnor-5-cholenate] [compound 4]", "values": [
      {"measurement": "growth inhibition", "setting": "[4]", "result": "85-100%"},
      {"measurement": "growth inhibition", "setting": "[5]", "result": "85-100%"},
      {"measurement": "growth inhibition", "setting": "[6]", "result": "85-100%"},
      {"measurement": "IC50", "setting": "[7]; CEM-SS cell line, uninfected, average of two repeat experiments, read-out: IC50 (50% inhibitory concentration for cell growth), cytotoxicity", "result": 4.7, "unit": "µM"},
      {"measurement": "Cytotoxicity (in words)", "setting": "[7]; CEM-SS cells, conjugate only", "result": "high cytotoxicity"},
      {"measurement": "EC50 (50% effective concentration against HIV cytopathic effects)", "setting": "[3]; CEM-SS cell line, average of two repeat experiments", "result": "inactive"},
      {"measurement": "Anti-HIV activity (in words)", "setting": "[3]", "result": "no anti-HIV activity"},
      {"measurement": "cells induced to apoptosis", "setting": "[8]", "result": "~90", "unit": "%"},
      {"measurement": "growth inhibition", "setting": "[9]", "result": "85-100%"},
      {"measurement": "growth inhibition", "setting": "[10]", "result": "85-100%"},
      {"measurement": "cytotoxicity after 24 hrs drug exposure", "setting": "[1]; 5 μg/ml, 24 hrs exposure, FIG. 3", "result": "Substantially more cytotoxicity"},
      {"measurement": "cytotoxicity after 72 hrs drug exposure", "setting": "[1]; 5 μg/ml, 72 hrs exposure, FIG. 3", "result": "only gave a plateau"},
      {"measurement": "cell growth inhibition after 4 hrs drug exposure", "setting": "[1]; 1 or 5 μg/ml, 4 hrs exposure, FIG. 3", "result": "did not produce any inhibition"},
      {"measurement": "cell growth inhibition after 8 hrs drug exposure", "setting": "[1]; 1 or 5 μg/ml, 8 hrs incubation, FIG. 3", "result": "20-25%"},
      {"measurement": "IC50, cell growth inhibitory activity against human lymphoblasts (H9 cells)", "setting": "[1]; FIG. 1, 72 hrs incubation", "result": "~2.5", "unit": "µg/mL"},
      {"measurement": "Inhibition of growth of H9 cells (in words)", "setting": "[1]; FIG. 2, 5 μg/ml for (4)", "result": "prevented growth of H9 cells almost completely"}
    ]}
  ]
}
